Experimental data reported in patent US5843925A, “Methods for inhibiting angiogenesis, proliferation of endothelial or tumor cells and tumor growth” (American Cyanamid Company, priority 1994, dated 1998).
Where a name gives a salt, the structure may show the parent alone.

Experiments:
Format in all cases: cell-based
Human Tumor cell lines = assay: Antiproliferative activity in panel of human tumor cell lines (PROTOCOL 1 and PROTOCOL 2); conditions: Homo sapiens; average over the tumor cell lines of Table 3
Protocol: The antiproliferative activity of the compounds of Formula I in an Adult Bovine Aortic Endothelial (ABAE) cell line and in Human Tumor cells lines is evaluated in three similar assays that measure growth inhibition. The assays are identified as follows:
(§1) PROTOCOLS 1, 2, and 3 are described in greater detail hereinbelow. In general, according to PROTOCOLS 1 and 2, the target ABAE and/or Human Tumor cells are exposed to the compound of Formula I for 48 hours. PROTOCOL 3 exposes ABAE cells to the compounds for 4 days. A detailed description of the protocol is as follows:
(§2) The antiproliferative activity of the compounds of Formula I of the present invention is evaluated in a panel comprised of human tumor cell lines and an adult bovine aortic endothelial cell line (ABAE). The human tumor cell lines are from
(§3) All cell lines are maintained in log phase in RPMI 1640 media, supplemented with 5% fetal calf serum, penicillin/streptomycin and 2 mM L-glutamine. Cultures are renewed after 20 passages with cells from a fresh stock of batch-frozen early passage cells. Cell lines are routinely checked for mycoplasma contamination (Genprobe). In a laminar flow hood, cells (1-5×10^4) are plated into 96-well microtiter plates in a volume of 0.1 ml/well with a bulk microtiter dispenser (Denley). […] At this concentration, dimethylsulfoxide has no effect on cell growth. Compounds are added using a Tomtec dispenser which simultaneously dispenses from one 96-well plate, containing the drug dilutions, to the plates containing the cells. After two days of continuous drug exposure, 50% cold trichloroacetic acid (TCA) is added to 10% final concentration to fix the cells, and after 60 minutes at 4° C., the TCA is aspirated and the plates are washed 5 times with deionized water using a microtiter plate washer. The number of cells on the plate are quantitated using a protein dye-binding assay (Monks et al., 1991). A 0.4% solution of the dye, sulforhodamine B, in glacial acetic acid is added to the plates, and the plates are washed 5 times with 1% glacial acetic acid using the automatic plate washed. The bound stain is solubilized with 0.1 ml of 10 mM Tris base. The optical densities are read from an automatic spectrophotometric plate reader (Dynatech) directly to a main frame computer (VAX 8600).
(§4) Positive controls, that include standard chemotherapeutic drugs (i.e., adriamycin, cisplatin, etc.), are included in every experiment.
(§5) Background optical density measurements (complete media-cells, and complete media+drug-cells) are automatically subtracted from the appropriate control and test wells. Mean values and standard errors are determined from duplicate wells. A measure is also made of the optical density at time when the drugs are added. The number of cells after treatment (P), as % of control, is calculated for every concentration of drug, as follows: [formula] wherein: T is optical density measurement for treated cells after 48 hours;
(§6) C is optical density measurement for untreated cells after 48 hours;
(§7) Co is optical density measurement for cells at the time of drug addition.
(§8) IC50 of growth inhibition is calculated from the sets of P values using the RS-1 data package (BBN Software).
(§9) Antiproliferative Activity in Human Tumor Cell Lines
(§10) The antiproliferative activity of the compounds of Formula I is evaluated in the panel comprised of human tumor cell lines as listed in PROTOCOL 1. This assay is a slight modification of PROTOCOL 1. The modifications include:
(§11) 1) each concentration for each compound is tested in a single well;
(§12) 2) compounds are tested at 20, 4, 0.8, 0.16 microgram/ml and additionally in some experiments at 100 and 0.32 microgram/ml;
(§13) 3) samples are pipetted into a 96-well plate for each of the cell lines by a Beckman Biomek 1000 SL robot;
(§14) 4) after fixing with TCA each well is washed with 0.35 ml distilled water twice, not five times;
5) after staining with sulforhodamine B each well is washed 3 times, not five times; […]

SW620 = assay: Antiproliferative activity in human tumor cell lines (SW620); conditions: SW-620, SW620 colon tumor cell line
Protocol: as §1, §2, §3, §4, §5, §6, §7, §8, §9, §10, §11, §12, §13, §14
(§15) 5) after staining with sulforhodamine B each well is washed 3 times, not five times;
(§16) 6) the growth inhibition (I) as % of control, is calculated using the RS-1 data package (BBN Software), for every concentration of drug, as follows: [formula] wherein: T is optical density measurement for treated cells after 48 hours; […]

HTB 161 = assay: Antiproliferative activity in human tumor cell lines (HTB 161)
Protocol: as §1, §2
(§17) Cultures are renewed after 20 passages with cells from a fresh stock of batch-frozen early passage cells. Cell lines are routinely checked for mycoplasma contamination (Genprobe). In a laminar flow hood, cells (1-5×10^4) are plated into 96-well microtiter plates in a volume of 0.1 ml/well with a bulk microtiter dispenser (Denley). […] Compounds are added using a Tomtec dispenser which simultaneously dispenses from one 96-well plate, containing the drug dilutions, to the plates containing the cells. After two days of continuous drug exposure, 50% cold trichloroacetic acid (TCA) is added to 10% final concentration to fix the cells, and after 60 minutes at 4° C., the TCA is aspirated and the plates are washed 5 times with deionized water using a microtiter plate washer. […] A 0.4% solution of the dye, sulforhodamine B, in […] is added to the plates, and the plates are washed 5 times with 1% glacial acetic acid using the automatic plate washed. The bound stain is solubilized with 0.1 ml of 10 mM Tris base. The optical densities are read from an automatic spectrophotometric plate reader (Dynatech) directly to a main frame computer (VAX 8600).
as §4, §5, §6, §7, §8, §9, §10, §11, §12, §13, §14, §15
(§18) 6) the growth inhibition (I) as % of control, is calculated using the RS-1 data package (BBN Software), for every concentration of drug, as follows: [formula] wherein: T is optical density measurement for treated cells after 48 hours;
(§19) 7) IC50 of growth inhibition is determined graphically from dose response curves, as is known in the art.

A2780/DDP = assay: Antiproliferative activity in human tumor cell lines (A2780/DDP); conditions: A2780/DDP ovarian tumor cell line
Protocol: as §1, §2, §17, §4, §5, §6, §7, §8, §9, §10, §11, §12, §13, §14, §15, §18, §19

CACO2 = assay: Antiproliferative activity in human tumor cell lines (CACO2); conditions: Caco-2, CACO2 colon tumor cell line
Protocol: as §1, §2, §3, §4, §5, §6, §7, §8, §9, §10, §11, §12, §13, §14, §15, §16

MIP = assay: Antiproliferative activity in human tumor cell lines (MIP); conditions: MIP colon tumor cell line
Protocol: as §1, §2, §3, §4, §5, §6, §7, §8, §9, §10, §11, §12, §13, §14, §15, §16

A2780S = assay: Antiproliferative activity in human tumor cell lines (A2780S); conditions: A2780S ovarian tumor cell line
Protocol: as §1, §2, §17, §4, §5, §6, §7, §8, §9, §10, §11, §12, §13, §14, §15, §18, §19

| SMILES | IC50 (Human Tumor cell lines) [µg/mL] | IC50 (SW620) [µg/mL] | IC50 (HTB 161) [µg/mL] | IC50 (A2780/DDP) [µg/mL] | IC50 (CACO2) [µg/mL] | IC50 (MIP) [µg/mL] | IC50 (A2780S) [µg/mL] |
| --- | --- | --- | --- | --- | --- | --- | --- |
| CN(C)CC(=O)Nc1cc(N(C)C)c2c(c1O)C(=O)C1=C(O)[C@]3(O)C(=O)C(C(N)=O)=C(O)[C@@H](N(C)C)C3CC1C2 (stereo partly drawn) [Example 2, [4S-(4a,12aa-1-4,7-Bis(dimethylamino)-9-[[(dimethylamino)acetyl]amino]]-1,4,,4a,5,5a,6,11,12a-octahvdro-3,10,12,12a-tetrahydroxy-1,11-dioxo-2-napththacenecarboxamidedihydrochloride] | 5.8 | 5.6 | 6 | 7 | 5.1 | 4.6 | 6.5 |
| CCCCCCNCC(=O)Nc1cc(N(C)C)c2c(c1O)C(=O)C1=C(O)[C@]3(O)C(=O)C(C(N)=O)=C(O)[C@@H](N(C)C)C3CC1C2 (stereo partly drawn) [Example 4, [4S-(4α,12aα)]-4,7-Bis(dimethylamino)-9-[(hexylamino)acetyl]amino]-1,4,4a,5,5a,6,11,12a-octahydro-3,10,12,12a-tetrahydroxy-1,11-dioxo-2-naphthacenecarboxamide dihydrochloride] | 2.3 | 2.7 | 2 | 2.3 | 1.9 | 2.8 | 2.3 |
| CCCCCCCNCC(=O)Nc1cc(N(C)C)c2c(c1O)C(=O)C1=C(O)[C@]3(O)C(=O)C(C(N)=O)=C(O)[C@@H](N(C)C)C3CC1C2 (stereo partly drawn) [Example 5, [4S-(4α,12aα)]-4,7-Bis(dimethylamino)-9-[[(heptylamino)acetyl]amino]-1,4,4a,5,5a,6,11,12a-octahydro-3,10,12,12a-tetrahydroxy-1,11-dioxo-2-naphthacenecarboxamide dihydrochloride] | 2.4 | 2.4 | 2.3 | 2.5 | 3.7 | 3.2 | 2.5 |
